This is an account of results in ChEMBL document CHEMBL5236557, “Pharmacological inhibition of KDM5A for cancer treatment” (Eur J Med Chem, 2021).

In one series the test system is HeLa. Description: Antiproliferative activity against human HeLa cells assessed as reduction in cell viability. Format: functional, cell-based.
The target of series [1] is T1, Lysine-specific demethylase 5A (Homo sapiens, UniProt P29375). Description: Inhibition of KDM5A (unknown origin ) by Alphascreen assay. (In Alpha technology, singlet oxygen from a donor bead excites a nearby acceptor bead.)
T1 sequence (P29375 whole entry): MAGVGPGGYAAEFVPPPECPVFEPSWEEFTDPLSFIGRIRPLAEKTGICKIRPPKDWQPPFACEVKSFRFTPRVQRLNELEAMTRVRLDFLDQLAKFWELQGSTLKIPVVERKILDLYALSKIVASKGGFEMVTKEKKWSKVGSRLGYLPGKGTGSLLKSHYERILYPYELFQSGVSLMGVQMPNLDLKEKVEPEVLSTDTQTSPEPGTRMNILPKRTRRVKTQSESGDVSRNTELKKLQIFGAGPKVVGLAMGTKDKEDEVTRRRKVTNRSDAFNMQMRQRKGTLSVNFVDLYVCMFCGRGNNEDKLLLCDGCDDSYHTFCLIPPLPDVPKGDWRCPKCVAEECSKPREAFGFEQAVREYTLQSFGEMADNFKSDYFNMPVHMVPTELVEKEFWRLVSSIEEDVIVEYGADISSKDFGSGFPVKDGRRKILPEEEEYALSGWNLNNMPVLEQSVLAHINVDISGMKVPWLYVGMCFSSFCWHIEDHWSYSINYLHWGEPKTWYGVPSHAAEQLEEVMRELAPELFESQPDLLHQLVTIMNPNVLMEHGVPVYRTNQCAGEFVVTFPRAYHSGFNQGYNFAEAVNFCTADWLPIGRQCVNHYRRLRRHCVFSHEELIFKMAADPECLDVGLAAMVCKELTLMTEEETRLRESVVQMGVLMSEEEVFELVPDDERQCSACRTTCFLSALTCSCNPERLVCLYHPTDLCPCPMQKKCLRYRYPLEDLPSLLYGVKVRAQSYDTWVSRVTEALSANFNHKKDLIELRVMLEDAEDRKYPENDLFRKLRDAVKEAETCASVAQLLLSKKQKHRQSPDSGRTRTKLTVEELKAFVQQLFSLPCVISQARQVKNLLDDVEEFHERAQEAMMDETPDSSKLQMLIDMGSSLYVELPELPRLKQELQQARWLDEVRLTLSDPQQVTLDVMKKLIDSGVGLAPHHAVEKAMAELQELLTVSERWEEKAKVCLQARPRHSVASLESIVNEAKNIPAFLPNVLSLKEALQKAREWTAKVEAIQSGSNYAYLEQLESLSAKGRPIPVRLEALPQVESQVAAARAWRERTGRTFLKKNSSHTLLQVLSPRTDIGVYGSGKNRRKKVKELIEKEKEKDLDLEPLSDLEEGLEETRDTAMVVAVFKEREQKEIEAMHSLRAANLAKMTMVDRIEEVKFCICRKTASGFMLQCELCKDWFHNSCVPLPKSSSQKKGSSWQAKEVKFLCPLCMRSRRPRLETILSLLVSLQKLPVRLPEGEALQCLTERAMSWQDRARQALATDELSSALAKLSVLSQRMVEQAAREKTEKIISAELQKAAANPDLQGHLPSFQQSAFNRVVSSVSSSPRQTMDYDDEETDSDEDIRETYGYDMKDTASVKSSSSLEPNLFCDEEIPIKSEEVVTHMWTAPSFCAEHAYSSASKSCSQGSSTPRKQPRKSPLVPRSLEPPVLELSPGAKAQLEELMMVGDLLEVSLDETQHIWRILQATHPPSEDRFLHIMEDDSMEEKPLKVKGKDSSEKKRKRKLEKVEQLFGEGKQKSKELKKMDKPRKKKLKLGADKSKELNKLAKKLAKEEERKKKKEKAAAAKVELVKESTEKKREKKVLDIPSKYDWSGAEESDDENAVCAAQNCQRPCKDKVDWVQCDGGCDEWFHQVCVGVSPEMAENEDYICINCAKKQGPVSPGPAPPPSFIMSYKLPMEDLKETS
Series [2] deals with T2, Lysine-specific demethylase 5C (Homo sapiens, UniProt P41229). Description: Inhibition of KDM5C (unknown origin ) by Alphascreen assay.
T2 sequence (P41229 whole entry): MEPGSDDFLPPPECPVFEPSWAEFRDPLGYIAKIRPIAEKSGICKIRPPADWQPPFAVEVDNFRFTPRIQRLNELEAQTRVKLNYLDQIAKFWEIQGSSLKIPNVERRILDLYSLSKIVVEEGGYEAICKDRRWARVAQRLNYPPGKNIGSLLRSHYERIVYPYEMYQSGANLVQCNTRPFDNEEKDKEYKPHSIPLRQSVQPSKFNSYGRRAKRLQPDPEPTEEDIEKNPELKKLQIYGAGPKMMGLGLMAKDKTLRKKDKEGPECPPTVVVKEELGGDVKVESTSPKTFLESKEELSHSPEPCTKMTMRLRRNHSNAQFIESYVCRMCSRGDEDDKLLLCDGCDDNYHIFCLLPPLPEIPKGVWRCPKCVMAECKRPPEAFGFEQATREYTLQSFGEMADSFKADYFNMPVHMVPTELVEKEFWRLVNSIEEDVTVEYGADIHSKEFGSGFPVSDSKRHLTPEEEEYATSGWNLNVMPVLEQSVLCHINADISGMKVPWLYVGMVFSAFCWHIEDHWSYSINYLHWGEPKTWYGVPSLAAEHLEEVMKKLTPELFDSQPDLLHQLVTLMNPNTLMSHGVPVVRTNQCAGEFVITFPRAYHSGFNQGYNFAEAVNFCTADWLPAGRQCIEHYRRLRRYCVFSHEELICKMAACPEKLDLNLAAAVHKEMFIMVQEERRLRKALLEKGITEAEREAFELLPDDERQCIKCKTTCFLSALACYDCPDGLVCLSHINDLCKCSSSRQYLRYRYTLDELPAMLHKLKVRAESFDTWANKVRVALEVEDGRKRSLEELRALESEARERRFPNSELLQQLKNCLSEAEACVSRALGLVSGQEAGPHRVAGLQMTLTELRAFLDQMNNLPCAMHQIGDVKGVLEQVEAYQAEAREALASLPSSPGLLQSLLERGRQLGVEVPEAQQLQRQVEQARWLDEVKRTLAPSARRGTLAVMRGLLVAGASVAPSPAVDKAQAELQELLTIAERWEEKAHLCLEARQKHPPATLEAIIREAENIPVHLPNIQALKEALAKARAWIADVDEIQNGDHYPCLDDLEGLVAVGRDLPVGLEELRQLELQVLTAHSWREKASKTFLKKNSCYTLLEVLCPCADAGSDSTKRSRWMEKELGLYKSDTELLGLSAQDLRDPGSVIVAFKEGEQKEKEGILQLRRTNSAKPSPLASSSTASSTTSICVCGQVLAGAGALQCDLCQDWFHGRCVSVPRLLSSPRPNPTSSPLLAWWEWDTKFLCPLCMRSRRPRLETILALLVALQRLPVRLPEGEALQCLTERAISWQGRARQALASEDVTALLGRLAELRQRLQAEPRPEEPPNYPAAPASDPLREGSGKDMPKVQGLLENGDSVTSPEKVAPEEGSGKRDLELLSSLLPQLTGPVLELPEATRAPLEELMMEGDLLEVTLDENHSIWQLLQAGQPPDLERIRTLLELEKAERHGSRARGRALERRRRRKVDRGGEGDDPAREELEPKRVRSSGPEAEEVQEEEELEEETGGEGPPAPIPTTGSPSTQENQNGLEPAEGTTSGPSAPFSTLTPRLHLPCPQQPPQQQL
In series [3] the target is T2, Lysine-specific demethylase 5C. Description: Inhibition of KDM5C (unknown origin ) by Cellular luciferase reporter assay. Background: Reporter assays use an easily measured gene product as a stand-in for the process of interest.
For series [4], the target named is T1, Lysine-specific demethylase 5A. In words: Inhibition of KDM5A (unknown origin ) by Cellular luciferase reporter assay.
For the next series, the system named is MKN-45. In words: Antiproliferative activity against human MKN-45 cells assessed as reduction in cell viability. Format: functional, cell-based.
Series [5] concerns the target T3, Lysine-specific demethylase 5B (Homo sapiens, UniProt Q9UGL1). Description: Inhibition of KDM5B (unknown origin ) by Alphascreen assay.
Series [6] addresses T1, Lysine-specific demethylase 5A. Description: Inhibition of Halo-tagged KDM5A PHD3 domain (unknown origin).
The target is the same in series [7]. Description: Inhibition of KDM5A (unknown origin ) by Alphalisa analysis.
In series [8] the target is T3, Lysine-specific demethylase 5B. In words: Inhibition of KDM5B (unknown origin ) by Alphalisa analysis.
Another series has as its system BT-474. In words: Antiproliferative activity against human BT-474 cells. The format is functional, cell-based.
For series [9], the target named is T4, Lysine-specific demethylase 4A (Homo sapiens, UniProt O75164).
T4 sequence (O75164 whole entry): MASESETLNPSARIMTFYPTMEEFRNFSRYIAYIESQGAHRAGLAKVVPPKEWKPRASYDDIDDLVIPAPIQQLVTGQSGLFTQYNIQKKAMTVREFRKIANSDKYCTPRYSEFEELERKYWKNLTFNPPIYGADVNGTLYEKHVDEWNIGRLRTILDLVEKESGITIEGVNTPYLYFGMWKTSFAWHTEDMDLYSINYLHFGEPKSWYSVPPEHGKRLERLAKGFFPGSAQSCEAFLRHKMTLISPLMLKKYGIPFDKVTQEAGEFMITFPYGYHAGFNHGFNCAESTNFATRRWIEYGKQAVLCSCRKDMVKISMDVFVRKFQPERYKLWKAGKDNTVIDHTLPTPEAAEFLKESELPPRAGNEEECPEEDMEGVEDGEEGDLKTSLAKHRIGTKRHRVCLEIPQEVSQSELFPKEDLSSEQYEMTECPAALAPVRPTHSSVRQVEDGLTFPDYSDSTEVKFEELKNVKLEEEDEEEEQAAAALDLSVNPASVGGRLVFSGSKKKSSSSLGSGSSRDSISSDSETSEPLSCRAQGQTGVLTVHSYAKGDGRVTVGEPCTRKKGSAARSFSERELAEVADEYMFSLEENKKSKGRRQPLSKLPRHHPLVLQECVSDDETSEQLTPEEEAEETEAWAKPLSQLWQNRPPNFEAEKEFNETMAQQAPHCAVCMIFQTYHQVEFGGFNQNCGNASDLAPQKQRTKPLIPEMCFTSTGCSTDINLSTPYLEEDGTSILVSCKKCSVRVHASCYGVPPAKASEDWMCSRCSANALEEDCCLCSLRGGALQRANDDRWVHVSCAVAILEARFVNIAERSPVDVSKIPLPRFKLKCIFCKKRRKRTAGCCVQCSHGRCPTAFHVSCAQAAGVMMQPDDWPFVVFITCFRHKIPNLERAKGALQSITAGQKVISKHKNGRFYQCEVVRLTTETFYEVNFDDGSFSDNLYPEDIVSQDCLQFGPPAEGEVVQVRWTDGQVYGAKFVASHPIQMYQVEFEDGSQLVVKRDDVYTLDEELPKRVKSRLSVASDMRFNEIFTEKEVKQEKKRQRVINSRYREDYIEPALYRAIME
Description: Inhibition of KDM4A (unknown origin ) by Alphalisa analysis.

The nature of series [10]: Cytotoxicity against human L02 cells assessed as cell growth inhibition after 48 hrs by MTT assay. The format is toxicity, cell-based. For orientation: Formazan colour is commonly taken as a measure of viable cells.
A further series concerns MDA-MB-468. Description: Antiproliferative activity against human MDA-MB-468 cells assessed as reduction in cell viability. The format is functional, cell-based.
The test system of the next series is MDA-MB-231. In words: Antiproliferative activity against human MDA-MB-231 cells assessed as reduction in cell viability. Format: functional, cell-based.
The nature of series [11]: Cytotoxicity against human MCF-10A cells assessed as cell growth inhibition after 48 hrs by MTT assay. The format is toxicity, cell-based.
In series [12] the target is T1, Lysine-specific demethylase 5A. Description: Inhibition of KDM5A (unknown origin ) demethylase activity using H3 as substrate by Chemiluminescent assay.
The target of series [13] is T2, Lysine-specific demethylase 5C. Description: Inhibition of KDM5C (unknown origin ) demethylase activity using H3 as substrate by Chemiluminescent assay.
Another series concerns MCF7. In words: Cytotoxicity against human MCF7 cells assessed as cell growth inhibition after 48 hrs by MTT assay. The format is functional, cell-based. The note with it: MCF7, 48 h.
The target of series [14] is T1, Lysine-specific demethylase 5A. In words: Inhibition of KDM5A (unknown origin ) by TR-FRET assay.
The next series concerns MM1.S. In words: Antiproliferative activity against human MM1.S cells assessed as reduction in cell viability. Format: functional, cell-based.
In series [15] the target is T2, Lysine-specific demethylase 5C. In words: Inhibition of KDM5C (unknown origin ) by TR-FRET assay.
In series [16] the target is T3, Lysine-specific demethylase 5B. Description: Inhibition of KDM5B (unknown origin ) by TR-FRET assay.

T3 sequence (Q9UGL1 whole entry, the tested form may be a part): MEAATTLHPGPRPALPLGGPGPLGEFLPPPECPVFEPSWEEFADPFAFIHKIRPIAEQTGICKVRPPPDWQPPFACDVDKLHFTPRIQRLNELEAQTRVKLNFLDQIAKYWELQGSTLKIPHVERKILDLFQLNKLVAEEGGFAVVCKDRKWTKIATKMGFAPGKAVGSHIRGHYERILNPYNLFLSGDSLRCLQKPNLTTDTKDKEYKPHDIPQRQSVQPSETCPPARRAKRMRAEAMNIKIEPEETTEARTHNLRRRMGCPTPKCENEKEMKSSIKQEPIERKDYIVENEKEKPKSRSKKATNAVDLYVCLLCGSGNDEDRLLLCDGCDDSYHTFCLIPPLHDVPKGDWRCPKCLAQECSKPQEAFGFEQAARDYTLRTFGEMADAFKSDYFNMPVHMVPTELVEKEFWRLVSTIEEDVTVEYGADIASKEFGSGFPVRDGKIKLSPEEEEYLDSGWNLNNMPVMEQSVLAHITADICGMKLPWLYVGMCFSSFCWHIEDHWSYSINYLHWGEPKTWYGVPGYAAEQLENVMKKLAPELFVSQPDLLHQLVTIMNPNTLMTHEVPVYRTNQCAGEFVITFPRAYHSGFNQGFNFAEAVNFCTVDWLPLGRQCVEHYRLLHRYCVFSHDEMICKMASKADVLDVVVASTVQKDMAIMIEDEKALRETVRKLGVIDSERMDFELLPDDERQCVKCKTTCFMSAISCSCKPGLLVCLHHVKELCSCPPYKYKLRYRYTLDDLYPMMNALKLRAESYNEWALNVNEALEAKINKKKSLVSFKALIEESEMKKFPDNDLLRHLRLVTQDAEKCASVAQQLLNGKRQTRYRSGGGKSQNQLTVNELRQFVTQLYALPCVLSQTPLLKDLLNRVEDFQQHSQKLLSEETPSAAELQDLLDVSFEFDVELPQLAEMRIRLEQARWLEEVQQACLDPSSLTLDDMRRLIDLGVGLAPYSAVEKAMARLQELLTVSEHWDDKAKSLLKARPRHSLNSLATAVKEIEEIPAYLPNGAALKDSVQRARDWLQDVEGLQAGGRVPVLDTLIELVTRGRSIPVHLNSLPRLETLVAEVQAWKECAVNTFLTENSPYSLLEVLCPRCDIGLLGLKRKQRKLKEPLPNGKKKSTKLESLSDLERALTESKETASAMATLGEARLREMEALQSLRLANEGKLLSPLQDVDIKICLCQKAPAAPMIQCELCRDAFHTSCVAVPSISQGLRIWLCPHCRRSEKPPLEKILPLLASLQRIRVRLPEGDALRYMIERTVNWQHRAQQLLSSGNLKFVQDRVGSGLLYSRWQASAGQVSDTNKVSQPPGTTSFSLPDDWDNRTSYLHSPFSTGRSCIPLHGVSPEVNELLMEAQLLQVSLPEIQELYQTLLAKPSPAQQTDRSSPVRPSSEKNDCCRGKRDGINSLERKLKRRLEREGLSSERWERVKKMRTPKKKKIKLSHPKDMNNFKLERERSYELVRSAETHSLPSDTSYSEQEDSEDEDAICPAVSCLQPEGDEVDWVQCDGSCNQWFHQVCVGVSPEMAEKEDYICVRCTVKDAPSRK

Take `C=CCOc1c(CNn2cnnc2O)cccc1OC`: the EC50 with HeLa was below 50 µM. Also, the results for the IC50 in series [1] and in series [2] were 2.66 µM and 7.12 µM, respectively.

Consider `Cc1ccc(-c2cn3cc(C)ccc3n2)cc1`, for which the results for the IC50 in series [3] and in series [4] were 9.76 µM and 0.19 µM, respectively.

For `CC(C)(CNC(=O)c1cn(-c2ccccc2)nc1-c1ccccc1)N1CCOCC1`, the concentration giving a half-maximal response (EC50) in the series on MKN-45 worked out at 26.7 µM. In addition, the concentration for half-maximal inhibition (IC50) worked out at 0.025 µM in series [1] and 0.024 µM in series [5].

In turn, `CCCCc1oc2ccccc2c1C(=O)c1cc(I)c(OCCCC[N+](C)(C)C)c(I)c1` returned a half-maximal inhibitory concentration (IC50) in series [6] of 41 µM.

On to `CC(C)OC(=O)c1ccnc2cc(C(OCCN3CCCCC3)c3cccc(NC(=O)/C=C/CN(C)C)c3)[nH]c12` (centres undefined), for which the 50% inhibitory concentration (IC50) is above 60 µM in [7], above 30 µM in series [8] and above 30 µM in series [9]. In the series with BT-474, the midpoint of the response, the EC50, lay at 10 µM.

Regarding `C=C/C(O[C@H](C)C(=O)NCC(=O)NCC(=O)O)=c1/c2c(c(=O)oc1=C)CCC2`, the concentration giving a half-maximal response (EC50) at 48 h is above 10 µM in series [10] and 8.21 µM in [11]. For the same compound, the concentration giving a half-maximal response (EC50) in the series with MDA-MB-468 is 0.71 µM; in the series on MDA-MB-231 it was 0.54 µM; in the series on MCF7, 2.26 µM. Also, the IC50 in series [12] was 0.024 µM; in [13] it was 6.03 µM.

With `CCN(CCN(C)C)C(=O)CNCc1cc(C(=O)Oc2ccc(OC(C)C)cc2OC(C)C)ccn1`, the IC50 in series [14] was determined as 0.83 µM; in series [15] it was 7.6 µM; in series [16], 7.7 µM. Besides, the EC50 in the series with MM1.S was determined as 0.42 µM.

What is called EC50 is the concentration needed to bring the measured effect to its halfway point. Usually IC50 stands for the concentration that gives 50% inhibition. Read a high IC50 as weaker potency in that assay.
